Results on 20 compounds are retold here after patent US20250228239A1, “MOLECULES HAVING PESTICIDAL UTILITY, AND INTERMEDIATES, COMPOSITIONS, AND PROCESSES, RELATED THERETO” (priority 2024, published 2025).

Test [1] concerns Cabbage Looper (Trichoplusia ni, TRIPNI). Briefly: Bioassays on Cabbage Looper (CL), 128-well diet tray assay. The class given is in vivo. To be noted: Trichoplusia ni. Summed up: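 Second-instar larvae (1–5 per well) placed on artificial diet surface-treated with 50 μg/cm^2 test molecule applied in 90:10 acetone-water and dried. Held at 25° C., 14:10 light-dark, for five to seven days. Percent mortality scored per well and averaged over eight wells.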

The test system of test [2] is Beet Armyworm (Spodoptera exigua, LAPHEG). Briefly: Bioassays on Beet Armyworm (BAW), 128-well diet tray assay. To be noted: Spodoptera exigua. Type of test: in vivo. Summed up: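 Larvae at second instar are exposed on dried, compound-treated diet (50 μg/cm^2, delivered in 90:10 acetone-water) in eight replicate wells. After five to seven days at 25° C., 14:10 light-dark, percent mortality in each well is scored and the eight wells averaged.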

Setting [3] is: Cabbage Looper, Table ABC / ABC-DP rating, read-out: CL rating.
The mark [4] stands for this setting: Beet Armyworm, Table ABC / ABC-DP rating, read-out: BAW rating.
Setting [5] is: Cabbage Looper, rating class, read-out: CL.
Where [6] appears, read: Beet Armyworm, rating class, read-out: BAW.
The mark [7] stands for this setting: Table ABC: Biological Results, species CL, read-out: CL.
Where [8] appears, read: Table ABC: Biological Results, species BAW, read-out: BAW.

Read-outs that look alike come from different tables or passages of the source.

Turning to `C=CCC(=O)Nc1c(F)ccc(NC(=O)c2cc(NC(=O)[C@H]3[C@H](c4ccc(Cl)c(Cl)c4)C3(Cl)Cl)ccc2Cl)c1F` [F1873, N-(3-(But-3-enamido)-2,4-difluorophenyl)-2-chloro-5-((1R,3R)-2,2-dichloro-3-(3,4-dichlorophenyl)cyclopropane-1-carboxamido)benzamide], the pest or weed control at 50 µg/cm2 in test [1] (setting [3]) and in test [2] (setting [4]) was 50 to 100% each time.
`CC(=O)Nc1c(F)ccc(NC(=O)c2cc(NC(=O)[C@H]3[C@H](c4ccc(F)c(C(F)(F)F)c4)C3(Cl)Cl)cc(F)c2F)c1F` [F1570, N-(3-Acetamido-2,4-difluorophenyl)-5-((1R,3R)-2,2-dichloro-3-(4-fluoro-3-(trifluoromethyl)phenyl)cyclopropane-1-carboxamido)-2,3-difluorobenzamide]: the pest or weed control at 50 µg/cm2 in test [1] (setting [5]) and in test [2] (setting [6]) was 50 to 100% in each case.
With `CC(=O)C1(C(=O)Nc2c(F)ccc(NC(=O)c3cc(NC(=O)[C@H]4[C@H](c5ccc(F)c(C(F)(F)F)c5)C4(Cl)Cl)ccc3Cl)c2F)CC1` [F1850, N-(3-(1-Acetylcyclopropane-1-carboxamido)-2,4-difluorophenyl)-2-chloro-5-((1R,3R)-2,2-dichloro-3-(4-fluoro-3-(trifluoromethyl)phenyl)cyclopropane-1-carboxamido)benzamide], the pest or weed control at 50 µg/cm2 in test [1] (setting [3]) and in test [2] (setting [4]) was 50 to 100% throughout.
As for `CC(=O)Nc1ccc(F)c(NC(=O)c2cc(NC(=O)[C@H]3[C@H](c4ccc(F)c(C(F)(F)F)c4)C3(Cl)Cl)cc(C)c2Cl)c1F` [F1525, N-(3-Acetamido-2,6-difluorophenyl)-2-chloro-5-((1R,3R)-2,2-dichloro-3-(4-fluoro-3-(trifluoromethyl)phenyl)cyclopropane-1-carboxamido)-3-methylbenzamide], the pest or weed control at 50 µg/cm2 in test [1] (setting [5]) and in test [2] (setting [6]) was 50 to 100% each time.
For `O=C(Nc1c(F)ccc(NC(=O)C(F)(F)F)c1F)c1cc(NC(=O)[C@H]2[C@H](c3cc(Cl)c(Cl)c(Cl)c3)C2(Cl)Cl)cc(F)c1F` [F1588, 5-((1R,3R)-2,2-Dichloro-3-(3,4,5-trichlorophenyl)cyclopropane-1-carboxamido)-N-(2,6-difluoro-3-(2,2,2-trifluoroacetamido)phenyl)-2,3-difluorobenzamide], the pest or weed control at 50 µg/cm2 in test [1] (setting [5]) and in test [2] (setting [6]) was 50 to 100% throughout.
`CCNC(=O)c1c(Cl)ccc(NC(=O)[C@H]2[C@H](c3ccc(F)c(Cl)c3)C2(Cl)Cl)c1F` [F2071, 6-Chloro-3-((1R,3R)-2,2-dichloro-3-(3-chloro-4-fluorophenyl)cyclopropane-1-carboxamido)-N-ethyl-2-fluorobenzamide]: the pest or weed control at 50 µg/cm2 in test [1] (setting [3]) and in test [2] (setting [4]) was 50 to 100% in each case.
With `O=C(Nc1cc(NC(=O)C(F)F)c(F)cc1F)c1cc(NC(=O)[C@H]2[C@H](c3ccc(F)c(C(F)(F)F)c3)C2(Cl)Cl)ccc1Cl` [F1540, 2-Chloro-5-((1R,3R)-2,2-dichloro-3-(4-fluoro-3-(trifluoromethyl)phenyl)cyclopropane-1-carboxamido)-N-(5-(2,2-difluoroacetamido)-2,4-difluorophenyl)benzamide], the pest or weed control at 50 µg/cm2 in test [1] (setting [5]) and in test [2] (setting [6]) was 50 to 100% each time.
`CC(=O)Nc1c(F)ccc(NC(=O)c2cc(NC(=O)[C@H]3[C@H](c4cc(Cl)c(Cl)c(Cl)c4)C3(Cl)Cl)cc(F)c2Cl)c1F` [F1504, N-(3-Acetamido-2,4-difluorophenyl)-2-chloro-5-((1R,3R)-2,2-dichloro-3-(3,4,5-trichlorophenyl)cyclopropane-1-carboxamido)-3-fluorobenzamide]: the pest or weed control at 50 µg/cm2 in test [1] (setting [5]) and in test [2] (setting [6]) was 50 to 100% each time.
As to `O=C(Nc1ccc(F)cc1F)c1cc(NC(=O)[C@H]2[C@H](c3ccc(F)c(Cl)c3)C2(Cl)Cl)cc(F)c1F` (relative stereo) [F1209, trans-5-(2,2-Dichloro-3-(3-chloro-4-fluorophenyl)cyclopropane-1-carboxamido)-N-(2,4-difluorophenyl)-2,3-difluorobenzamide], the pest or weed control at 50 µg/cm2 in test [1] (setting [7]) and in test [2] (setting [8]) was 50 to 100% in each case.
In the case of `Cc1cc(NC(=O)C(Cl)(Cl)Cl)ccc1NC(=O)c1cc(NC(=O)[C@H]2[C@H](c3ccc(Cl)c(Cl)c3)C2(Cl)Cl)ccc1Cl` (relative stereo) [F1060, trans-2-Chloro-5-(2,2-dichloro-3-(3,4-dichlorophenyl)cyclopropane-1-carboxamido)-N-(2-methyl-4-(2,2,2-trichloroacetamido)phenyl)benzamide], the pest or weed control at 50 µg/cm2 in test [1] (setting [7]) and in test [2] (setting [8]) was 50 to 100% throughout.
Turning to `O=C(Nc1cc(NC(=O)C(F)(F)F)c(F)cc1F)c1cc(NC(=O)[C@H]2[C@H](c3ccc(F)c(C(F)(F)F)c3)C2(Cl)Cl)cc(F)c1Cl` [F1407, 2-Chloro-5-((1R,3R)-2,2-dichloro-3-(4-fluoro-3-(trifluoromethyl)phenyl)cyclopropane-1-carboxamido)-N-(2,4-difluoro-5-(2,2,2-trifluoroacetamido)phenyl)-3-fluorobenzamide], the pest or weed control at 50 µg/cm2 in test [1] (setting [5]) and in test [2] (setting [6]) was 50 to 100% throughout.
Turning to `O=C(Nc1cc(NC(=O)C(F)(F)F)ccc1F)c1cc(NC(=O)[C@H]2[C@H](c3cc(Cl)cc(Cl)c3)C2(Cl)Cl)ccc1Cl` (relative stereo) [F1640, trans-2-Chloro-5-(2,2-dichloro-3-(3,5-dichlorophenyl)cyclopropane-1-carboxamido)-N-(2-fluoro-5-(2,2,2-trifluoroacetamido)phenyl)benzamide], the pest or weed control at 50 µg/cm2 in test [1] (setting [5]) and in test [2] (setting [6]) was 50 to 100% throughout.
As for `Cc1cc(NC(=O)[C@H]2[C@H](c3ccc(Cl)c(Cl)c3)C2(Cl)Cl)cc(C(=O)Nc2c(F)ccc(N)c2F)c1Cl` [F1426, N-(3-Amino-2,6-difluorophenyl)-2-chloro-5-((1R,3R)-2,2-dichloro-3-(3,4-dichlorophenyl)cyclopropane-1-carboxamido)-3-methylbenzamide], the pest or weed control at 50 µg/cm2 in test [1] (setting [5]) and in test [2] (setting [6]) was 50 to 100% in each case.
Turning to `COc1ccc(C(=O)Nc2c(F)ccc(NC(=O)c3cc(NC(=O)[C@H]4[C@H](c5ccc(F)c(C(F)(F)F)c5)C4(Cl)Cl)ccc3Cl)c2F)cc1` [F1205, 2-Chloro-5-((1R,3R)-2,2-dichloro-3-(4-fluoro-3-(trifluoromethyl)phenyl)cyclopropane-1-carboxamido)-N-(2,4-difluoro-3-(4-methoxybenzamido)phenyl)benzamide], the pest or weed control at 50 µg/cm2 in test [1] (setting [7]) and in test [2] (setting [8]) was 50 to 100% throughout.
As for `O=C(Nc1ccc(F)c(NC(=O)C2(C(F)(F)F)CCC2)c1F)c1cc(NC(=O)[C@H]2[C@H](c3ccc(F)c(C(F)(F)F)c3)C2(Cl)Cl)ccc1Cl` [F1849, 2-Chloro-5-((1R,3R)-2,2-dichloro-3-(4-fluoro-3-(trifluoromethyl)phenyl)cyclopropane-1-carboxamido)-N-(2,4-difluoro-3-(1-(trifluoromethyl)cyclobutane-1-carboxamido)phenyl)benzamide], the pest or weed control at 50 µg/cm2 in test [1] (setting [3]) and in test [2] (setting [4]) was 50 to 100% each time.
As to `O=C(NCC(F)(F)C(F)(F)F)c1cc(NC(=O)[C@H]2[C@H](c3ccc(F)c(Cl)c3)C2(Cl)Cl)cc(F)c1F` (relative stereo) [F2050, trans-5-(2,2-Dichloro-3-(3-chloro-4-fluorophenyl)cyclopropane-1-carboxamido)-2,3-difluoro-N-(2,2,3,3,3-pentafluoropropyl)benzamide], the pest or weed control at 50 µg/cm2 in test [1] (setting [3]) and in test [2] (setting [4]) was 50 to 100% in each case.
For the compound `O=C(Nc1ccc(F)c(NC(=O)C(F)F)c1F)c1cc(NC(=O)[C@H]2[C@H](c3ccc(F)c(C(F)(F)F)c3)C2(Cl)Cl)cc(F)c1Cl` [F1289, 2-Chloro-5-((1R,3R)-2,2-dichloro-3-(4-fluoro-3-(trifluoromethyl)phenyl)-cyclopropane-1-carboxamido)-N-(3-(2,2-difluoroacetamido)-2,4-difluorophenyl)-3-fluorobenzamide], the pest or weed control at 50 µg/cm2 in test [1] (setting [7]) and in test [2] (setting [8]) was 50 to 100% each time.
Take `O=C(Nc1c(F)ccc(NC(=O)C(F)F)c1F)c1cc(NC(=O)[C@H]2[C@H](c3ccc(Cl)c(Cl)c3)C2(Cl)Cl)ccc1F` [F1512, 5-((1R,3R)-2,2-Dichloro-3-(3,4-dichlorophenyl)cyclopropane-1-carboxamido)-N-(3-(2,2-difluoroacetamido)-2,6-difluorophenyl)-2-fluorobenzamide]: the pest or weed control at 50 µg/cm2 in test [1] (setting [5]) and in test [2] (setting [6]) was 50 to 100% throughout.
As for `O=C(Nc1ccc(F)c(NC(=O)C2CCCO2)c1F)c1cc(NC(=O)[C@H]2[C@H](c3cc(Cl)c(Cl)c(Cl)c3)C2(Cl)Cl)ccc1Cl` (stereo partly drawn) [F1647, N-(3-(2-Chloro-5-((1R,3R)-2,2-dichloro-3-(3,4,5-trichlorophenyl)cyclopropane-1-carboxamido)benzamido)-2,6-difluorophenyl)tetrahydrofuran-2-carboxamide], the pest or weed control at 50 µg/cm2 in test [1] (setting [5]) and in test [2] (setting [6]) was 50 to 100% throughout.
Take `Cc1c(F)cc(NC(=O)[C@H]2[C@H](c3ccc(F)c(Cl)c3)C2(Cl)Cl)cc1C(=O)Nc1ccc(F)c(N)c1F` (relative stereo) [F1286, trans-N-(3-Amino-2,4-difluorophenyl)-5-(2,2-dichloro-3-(3-chloro-4-fluorophenyl)cyclopropane-1-carboxamido)-3-fluoro-2-methylbenzamide]: the pest or weed control at 50 µg/cm2 in test [1] (setting [7]) and in test [2] (setting [8]) was 50 to 100% each time.
